Data reported in US9079866B2, “Flap modulators” (JANSSEN PHARMACEUTICA NV, priority 2013, dated 2015).
Structures can show the parent of a compound that is named as a salt. Where two headings read alike, the source gives them in different places.

How the values were obtained:
[1] = tested on: leukotriene pathway in human whole blood (LTB4 levels); assay: Human whole blood assay (A23187-stimulated LTB4); assay type: cell-based; conditions: Homo sapiens, human whole blood diluted 1:1, A23187-stimulated; read-out: LTB4 IC50 1:1
Outline: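 Blood (heparin) diluted 1:1 RPMI; compound pre-incubation 15 min, 37° Celsius; A23187 7 μg/mL, 30 min, 37° Celsius; plasma LTB4 by commercial kit. IC50 via 4-parameter equation.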

human FLAP = human FLAP (Homo sapiens (Human), UniProt P20292); assay: FLAP binding assay (HTRF format)
Chain of human FLAP (P20292 whole entry): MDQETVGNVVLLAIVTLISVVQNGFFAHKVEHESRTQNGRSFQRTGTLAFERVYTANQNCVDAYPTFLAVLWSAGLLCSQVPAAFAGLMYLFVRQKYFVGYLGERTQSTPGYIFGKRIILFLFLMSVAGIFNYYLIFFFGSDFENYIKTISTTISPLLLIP
Outline: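 HTRF ratio read-out; two independent plates, samples in duplicate on each, values averaged across plates.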

[2] = read-out: FLAP Binding wild type HTRF Ki

SMILES | IC50 [1] [nM] | Ki (human FLAP; wild type FLAP, HTRF format) [nM] | Ki (human FLAP; [2]) [nM]
Nc1cnc(-c2ccc(-c3ccccc3C(=O)N3CCC[C@@H](O)C3)cc2F)cn1 [Example 762, (3R)-1-{[4′-(5-Aminopyrazin-2-yl)-3′-fluorobiphenyl-2-yl]carbonyl}piperidin-3-ol] | 442 | 159 | –
C[C@H](CO)NC(=O)c1cc(C(F)(F)F)ccc1-c1ccc(-c2cnc(N)cn2)c(F)c1 [Example 785, 2-[4-(5-Aminopyrazin-2-yl)-3-fluoro-phenyl]-N-[(1R)-2-hydroxy-1-methyl-ethyl]-5-(trifluoromethyl)benzamide] | 57.5 | 8.5 | –
C[C@@H](NC(=O)c1cc(C(F)(F)F)ccc1-c1ccc(-c2cnc(N)cn2)c(F)c1)C(F)(F)F [Example 787, 2-[4-(5-Aminopyrazin-2-yl)-3-fluoro-phenyl]-5-(trifluoromethyl)-N-[(1R)-2,2,2-trifluoro-1-methyl-ethyl]benzamide] | 97.9 | 9.1 | –
Nc1ncc(-c2ccc(-c3ccc(C(F)(F)F)cc3C(=O)N3CCS(=O)(=O)CC3)cc2F)cn1 [Example 793, [2-[4-(2-Aminopyrimidin-5-yl)-3-fluoro-phenyl]-5-(trifluoromethyl)phenyl]-(1,1-dioxo-1,4-thiazinan-4-yl)methanone] | 642 | 280 | –
CC(C)(C)NC(=O)c1cc(C(F)(F)F)ccc1-c1ccc(-c2cnc(N)nc2)c(F)c1 [Example 794, 2-[4-(2-Aminopyrimidin-5-yl)-3-fluoro-phenyl]-N-tert-butyl-5-(trifluoromethyl)benzamide] | 3940 | 32.8 | –
CC(C)(C)C(=O)Nc1ncccc1-c1ccc(-c2cnc3[nH]ccc3c2)c(F)c1 [Example 802, N-{3-[3-Fluoro-4-(1H-pyrrolo[2,3-b]pyridin-5-yl)phenyl]pyridin-2-yl}-2,2-dimethylpropanamide] | 0.994 | > 10000 | –
Nc1ncc(-c2ccc(-c3cccnc3S(=O)(=O)C3CCC3)cc2F)cn1 [Example 805, 5-(4-(2-(Cyclobutylsulfonyl)pyridin-3-yl)-2-fluorophenyl)pyrimidin-2-amine hydrochloride] | 353 | 29.7 | –
Nc1cnc(-c2ccc(-c3cccnc3S(=O)(=O)C3CCC3)cc2F)cn1 [Example 806, 5-(4-(2-(Cyclobutylsulfonyl)pyridin-3-yl)-2-fluorophenyl)pyrazin-2-amine hydrochloride] | 48.4 | 1.8 | –
Nc1ncc(-c2ccc(-c3cccnc3S(=O)(=O)C3CCCCC3)cc2F)cn1 [Example 807, 5-(4-(2-(Cyclohexlsulfonyl)pyridin-3-yl)-2-fluorophenyl)pyrimidin-2-amine hydrochloride] | 72.2 | – | 5.8
CC(C)(C)S(=O)(=O)c1ncccc1-c1ccc(-c2cnc(N)nc2)c(F)c1 [Example 811, 5-(4-(2-(tert-Butylsulfonyl)pyridin-3-yl)-2-fluorophenyl)pyrimidin-2-amine formic acid salt] | 541 | – | 315
CC(C)(C)S(=O)(=O)c1ncccc1-c1ccc(-c2cnc(N)cn2)c(F)c1 [Example 812, 5-(4-(2-(tert-Butylsulfonyl)pyridin-3-yl)-2-fluorophenyl)pyrazin-2-amine formic acid salt] | 12 | – | 8.5
CC(=O)N1CCC(S(=O)(=O)c2ncccc2-c2ccc(-c3cnc(N)nc3)c(F)c2)CC1 [Example 815] | 128 | 256 | –
Nc1cnc(-c2ccc(-c3cccnc3S(=O)(=O)CCN3CCOCC3)cc2F)cn1 [Example 822, 5-(2-Fluoro-4-(2-((2-morpholinoethyl)sulfonyl)pyridine-3-yl)phenyl)pyrazin-2-amine] | 99.1 | 280 | –
Nc1cnc(-c2ccc(-c3cccnc3S(=O)(=O)CC3CCOCC3)cc2F)cn1 [Example 824, 5-(2-Fluoro-4-(2-(((tetrahydro-2H-pyran-4-yl)methyl)sulfonyl)pyridine-3-yl)pyrazin-2-amine formic acid salt] | 18 | 10.3 | –
CC(C)S(=O)(=O)c1ncccc1-c1ccc(-c2cnc(N)nc2)c(F)c1 [Example 825, 5-(2-Fluoro-4-{2-[(1-methylethyl)sulfonyl]pyridin-3-yl}phenyl)pyrimidin-2-amine] | 122 | 273 | –
CC(C)S(=O)(=O)c1ncccc1-c1ccc(-c2cnc3[nH]ccc3c2)c(F)c1 [Example 826, 5-(2-Fluoro-4-(2-(isopropylsulfonyl)pyridine-3-yl)phenyl)-1H-pyrrolo[2,3-b]pyridine] | 19.9 | 0.7 | –
Nc1ncc(-c2ccc(-c3cccnc3S(=O)(=O)C3CC3)cc2F)cn1 [Example 828, 5-{4-[2-(Cyclopropylsulfonyl)pyridin-3-yl]-2-fluorophenyl}pyrimidin-2-amine formic acid salt] | 260 | – | 115
Nc1cnc(-c2ccc(-c3cccnc3S(=O)(=O)C3CCOCC3)cc2F)cn1 [Example 830, 5-{2-Fluoro-4-[2-(tetrahydro-2H-pyran-4-ylsulfonyl)pyridin-3-yl]phenyl}pyrazin-2-amine hydrochloride] | 5.55 | 2.9 | –

More lines, in order of falling IC50 [1], values ahead:

IC50 [1] [nM] | Ki (human FLAP; wild type FLAP, HTRF format) [nM] | SMILES | Ki (human FLAP; [2]) [nM]
939 | 130 | C[C@@H](NC(=O)c1cc(C(F)(F)F)ccc1-c1ccc(-c2cnc(N)nc2)c(F)c1)C(F)(F)F [Example 789, 2-[4-(2-Aminopyrimidin-5-yl)-3-fluoro-phenyl]-5-(trifluoromethyl)-N-[(1R)-2,2,2-trifluoro-1-methyl-ethyl]benzamide] | –
272 | 17.8 | C[C@H](NC(=O)c1cc(C(F)(F)F)ccc1-c1ccc(-c2cnc(N)nc2)c(F)c1)C(F)(F)F [Example 788, 2-[4-(2-Aminopyrimidin-5-yl)-3-fluoro-phenyl]-5-(trifluoromethyl)-N-[(1S)-2,2,2-trifluoro-1-methyl-ethyl]benzamide] | –
110 | 7.9 | CC(C)(C)NC(=O)c1cc(C(F)(F)F)ccc1-c1ccc(-c2cnc(N)cn2)c(F)c1 [Example 784, 2-[4-(5-Aminopyrazin-2-yl)-3-fluoro-phenyl]-N-tert-butyl-5-(trifluoromethyl)benzamide] | –
105 | 60.7 | C[C@@H](CO)NC(=O)c1cc(C(F)(F)F)ccc1-c1ccc(-c2cnc(N)cn2)c(F)c1 [Example 786, 2-[4-(5-Aminopyrazin-2-yl)-3-fluoro-phenyl]-N-[(1S)-2-hydroxy-1-methyl-ethyl]-5-(trifluoromethyl)benzamide] | –
95.1 | 192 | Nc1ncc(-c2ccc(-c3cccnc3S(=O)(=O)CC3CCOCC3)cc2F)cn1 [Example 823, 5-(2-Fluoro-4-(2-(((tetrahydro-2H-pyran-4-yl)methyl)sulfonyl)pyridine-3-yl)pyrimidin-2-amine formic acid salt] | –
68.6 | 8.5 | Nc1cnc(-c2ccc(-c3ccc(C(F)(F)F)cc3C(=O)N3CCC(O)CC3)cc2F)cn1 [Example 795, [2-[4-(5-Aminopyrazin-2-yl)-3-fluoro-phenyl]-5-(trifluoromethyl)phenyl]-(4-hydroxy-1-piperidyl)methanone] | –
51.6 | 27.2 | COCCCS(=O)(=O)c1ncccc1-c1ccc(-c2cnc(N)cn2)c(F)c1 [Example 818, 5-(2-Fluoro-4-(2-((3-methoxypropyl)sulfonyl)pyridine-3-yl)phenyl)pyrazin-2-amine hydrogen chloride salt] | –
47.5 | 40.5 | Nc1ncc(-c2ccc(-c3cccnc3S(=O)(=O)C3CCS(=O)(=O)CC3)cc2F)cn1 [Example 819, 4-((3-(4-(2-aminopyrimidin-5-yl)-3-fluorophenyl)pyridine-2-yl)sulfonyl)tetrahydro-2H-thiopyran 1,1-dioxide] | –
46 | 21.8 | CC(=O)N1CCC(S(=O)(=O)c2ncccc2-c2ccc(-c3cnc(N)cn3)c(F)c2)CC1 [Example 816, 1-((3-(4-(2-Aminopyrazin-5-yl)-3-fluorophenyl)pyridine-2-yl)sulfonyl)piperidin-1-yl)ethanone hydrogen chloride salt] | –
41.6 | 3.3 | Nc1cnc(-c2ccc(-c3cccnc3S(=O)(=O)C3CCS(=O)(=O)CC3)cc2F)cn1 [Example 820, 4-((3-(4-(2-Aminopyrazin-5-yl)-3-fluorophenyl)pyridine-2-yl)sulfonyl)tetrahydro-2H-thiopyran 1,1-dioxide] | –
37.7 | 3.8 | Nc1ncc(-c2ccc(-c3cccnc3S(=O)(=O)C3CCCC3)cc2F)cn1 [Example 809, 5-(4-(2-(Cyclopentylsulfonyl)pyridin-3-yl)-2-fluorophenyl)pyrimidine-2-amine hydrochloride] | –
25.3 | 1.5 | C[C@H](NC(=O)c1cc(C(F)(F)F)ccc1-c1ccc(-c2cnc(N)cn2)c(F)c1)C(F)(F)F [Example 790, 2-[4-(5-Aminopyrazin-2-yl)-3-fluoro-phenyl]-5-(trifluoromethyl)-N-[(1S)-2,2,2-trifluoro-1-methyl-ethyl]benzamide] | –
6.37 | 0.4 | Nc1cnc(-c2ccc(-c3cccnc3S(=O)(=O)C3CCCCC3)cc2F)cn1 [Example 808, 5-(4-(2-(Cyclohexylsulfonyl)pyridin-3-yl)-2-fluorophenyl)pyrazin-2-amine hydrochloride] | –
5.96 | 3.2 | Nc1cnc(-c2ccc(-c3cccnc3S(=O)(=O)C3CC3)cc2F)cn1 [Example 829, 5-{4-[2-(Cyclopropylsulfonyl)pyridin-3-yl]-2-fluorophenyl}pyrazin-2-amine formic acid salt] | –
5.64 | 0.6 | Nc1cnc(-c2ccc(-c3cccnc3S(=O)(=O)C3CCCC3)cc2F)cn1 [Example 810, 5-(4-(2-(Cyclopentylsulfonyl)pyridin-3-yl)-2-fluorophenyl)pyrazin-2-amine hydrochloride] | –
